Literature values in PubChem BioAssay AID1259409 (Chemical Carcinogenesis Research Information System (CCRIS), 2018).

Tested on: rodent chemically induced tumor inhibition, incidence and multiplicity
Assay: CCRIS tumor inhibitor studies
Conditions: Dose [Inhibitor]: 0, Route [Inhibitor]: ORAL, Species: RAT, Promoter: NONE USED

N#C[Se]Cc1ccc(C[Se]C#N)cc1
tumour outcome (control, treated, inhibition, significance) (Carcinogen: 7,12-DIMETHYLBENZ[A]ANTHRACENE, 57-97-6, 5 PPM (AS SELENIUM) IN DIET BEGINNING 2 WK PRIOR TO CARCINOGEN DOSE AND CONTINUING FOR 1 WK POST CARCINOGEN DOSE (STU, Strain/Sex: SPRAGUE-DAWLEY/FEMALE, Target Tissue: Type of Lesion: MAMMARY GLAND: ADENOCARCINOMA, Dose [Carcinogen]: 10 MG ONCE AT 55 D OF AGE): 22/25 (88%), 15/25 (60%), 32%, p<0.05
tumour outcome (control, treated, inhibition, significance) (Carcinogen: 7,12-DIMETHYLBENZ[A]ANTHRACENE, 57-97-6, 5 PPM (AS SELENIUM) IN DIET BEGINNING 2 WK PRIOR TO CARCINOGEN DOSE AND CONTINUING FOR DURATION OF STUDY (STUDY DURAT, Strain/Sex: SPRAGUE-DAWLEY/FEMALE, Target Tissue: Type of Lesion: MAMMARY GLAND: ADENOCARCINOMA, Dose [Carcinogen]: 10 MG ONCE AT 55 D OF AGE): 88%, 52%, 41%, p<0.05
tumour outcome (control, treated, inhibition, significance) (Carcinogen: 7,12-DIMETHYLBENZ[A]ANTHRACENE, 57-97-6, 10 PPM (AS SELENIUM) IN DIET BEGINNING 1 WK POST CARCINOGEN DOSE AND CONTINUING FOR 25 WK (STUDY DURATION: 25 WK), Strain/Sex: SPRAGUE-DAWLEY/FEMALE, Target Tissue: Type of Lesion: MAMMARY GLAND: ADENOCARCINOMA, Dose [Carcinogen]: 10 MG ONCE AT 55 D OF AGE): 22/25 (88%), 14/25 (56%), 36%, p<0.05
tumour outcome (control, treated, inhibition, significance) (Carcinogen: 7,12-DIMETHYLBENZ[A]ANTHRACENE, 57-97-6, 10 PPM (AS SELENIUM) IN DIET BEGINNING 2 WK PRIOR TO CARCINOGEN DOSE AND CONTINUING FOR 1 WK POST CARCINOGEN DOSE (ST, Strain/Sex: SPRAGUE-DAWLEY/FEMALE, Target Tissue: Type of Lesion: MAMMARY GLAND: ADENOCARCINOMA, Dose [Carcinogen]: 10 MG ONCE AT 55 D OF AGE): 22/25 (88%), 12/25 (48%), 45%, p<0.05
tumour outcome (control, treated, inhibition, significance) (Carcinogen: 7,12-DIMETHYLBENZ[A]ANTHRACENE, 57-97-6, 10 PPM (AS SELENIUM) IN DIET BEGINNING 2 WK PRIOR TO CARCINOGEN DOSE AND CONTINUING FOR DURATION OF STUDY (STUDY DURA, Strain/Sex: SPRAGUE-DAWLEY/FEMALE, Target Tissue: Type of Lesion: MAMMARY GLAND: ADENOCARCINOMA, Dose [Carcinogen]: 10 MG ONCE AT 55 D OF AGE): 88%, 40%, 55%, p<0.05
tumour outcome (control, treated, inhibition, significance) (Carcinogen: 7,12-DIMETHYLBENZ[A]ANTHRACENE, 57-97-6, 15 PPM (AS SELENIUM) IN DIET BEGINNING 1 WK POST CARCINOGEN DOSE AND CONTINUING FOR 25 WK (STUDY DURATION: 25 WK), Strain/Sex: SPRAGUE-DAWLEY/FEMALE, Target Tissue: Type of Lesion: MAMMARY GLAND: ADENOCARCINOMA, Dose [Carcinogen]: 10 MG ONCE AT 55 D OF AGE): 22/25 (88%), 12/25 (48%), 45%, p<0.05
tumour outcome (control, treated, inhibition, significance) (Carcinogen: 7,12-DIMETHYLBENZ[A]ANTHRACENE, 57-97-6, 15 PPM (AS SELENIUM) IN DIET BEGINNING 2 WK PRIOR TO CARCINOGEN DOSE AND CONTINUING FOR 1 WK POST CARCINOGEN DOSE (ST, Strain/Sex: SPRAGUE-DAWLEY/FEMALE, Target Tissue: Type of Lesion: MAMMARY GLAND: ADENOCARCINOMA, Dose [Carcinogen]: 10 MG ONCE AT 55 D OF AGE): 22/25 (88%), 6/25 (24%), 73%, p<0.05
tumour outcome (control, treated, inhibition, significance) (Carcinogen: 7,12-DIMETHYLBENZ[A]ANTHRACENE, 57-97-6, 80 PPM IN HIGH FAT DIET FOR 2 WK BEGINNING 1 WK PRIOR TO CARCINOGEN DOSE (STUDY DURATION: 17 WK), Strain/Sex: SPRAGUE-DAWLEY/FEMALE, Target Tissue: Type of Lesion: MAMMARY GLAND: TUMOR, Dose [Carcinogen]: 5 MG IN 0.2 ML OLIVE OIL ONCE): 22/25 (88%), 5/25 (20%), 77%, p<0.01
tumour outcome (control, treated, inhibition, significance) (Carcinogen: AZOXYMETHANE, 25843-45-2, 20 PPM IN HIGH-FAT DIET BEGINNING 2 WK PRIOR TO CARCINOGEN TREATMENT AND CONTINUING FOR 3 D POST CARCINOGEN TREATMENT, Strain/Sex: F344/MALE, Target Tissue: Type of Lesion: COLON: ADENOCARCINOMA, Dose [Carcinogen]: 15 MG/KG BW/WK FOR 2 WK): 80%, 63%, 21%, not significant
tumour outcome (control, treated, inhibition, significance) (Carcinogen: AZOXYMETHANE, 25843-45-2, 40 PPM IN HIGH-FAT DIET BEGINNING 2 WK PRIOR TO CARCINOGEN TREATMENT AND CONTINUING FOR 3 D POST CARCINOGEN TREATMENT, Strain/Sex: F344/MALE, Target Tissue: Type of Lesion: COLON: ADENOCARCINOMA, Dose [Carcinogen]: 15 MG/KG BW/WK FOR 2 WK): 80%, 50%, 38%, p<0.05
tumour outcome (control, treated, inhibition, significance) (Carcinogen: AZOXYMETHANE, 25843-45-2, 40 PPM IN HIGH-FAT DIET FOR DURATION OF STUDY BEGINNING 3 D POST CARCINOGEN TREATMENT (STUDY DURATION: 36 WK), Strain/Sex: F344/MALE, Target Tissue: Type of Lesion: COLON: ADENOCARCINOMA, Dose [Carcinogen]: 15 MG/KG BW/WK FOR 2 WK): 80%, 37%, 54%, p<0.05
